Among the data in EP0609289B1, “IMIDAZOLE DERIVATIVES AND PHARMACEUTICAL COMPOSITIONS CONTAINING THE SAME” (THE UPJOHN COMPANY, priority 1991, dated 1993) are IC50 values, retold here.

One may read the IC50 as the concentration at which inhibition is half-maximal. A lower IC50 goes with greater potency in that assay.

The assay deals with Angiotensin II receptor. Nature of the assay: In vitro angiotensin II mesenteric artery receptor binding assay (test 1). Conditions: rat mesenteric artery membrane fraction, 0.2 nM 125I-Ang II, 22°C, 90 minutes. As to the method:
I) In vitro angiotensin II mesenteric artery receptor binding assay
According to the method (1) by Gunther et al., a membrane fraction was prepared from mesenteric artery of male rat, […] protein equivalent of it and 0.2 nM ^125I-Ang II as well as various concentrations of test compounds were incubated at 22°C for 90 minutes in an incubation buffer (50 mM Tris-HCl, 120 mM NaCl, 5 mM MgCl2. 0.25% bovine serum albumin, pH 7.2) (reaction volume; 200 µl). The incubated was cooled, and the reaction was stopped by addition of ice-cooled phosphate buffer (10 mM phosphate, 140 mM NaCI, pH 7.4, hereinafter referred to as PBS), and then the reaction solution was filtered through a glass fiber filter (Whatman CF/B), the filter was washed, dried, and then the radioactivity of captured ^125I-angiotensin II which bound to the receptor was measured by a γ-counter. Non-specific bound amount was obtained from the reaction in the presence of 1 µM of unlabeled angiotensin II. […] Res., 17:278-286, 1980].
“2-n-butyl-5-hydroxymethyl-8-methyl-5,6,7,8-tetrahydro-1H,4H-1,3,4a,8a-tetraza-cyclopentanaphthalene-9-one [Compound No. 541]” displayed an IC50 of more than 100 nM. In the case of “2-n-butyl-8-hydroxymethyl-5-methyl-5,6,7,8-tetrahydro-1H,4H-1,3,4a,8a-tetraza-cyclopentanaphthalene-9-one [Compound No. 542]” it was 34 nM. Turning to `CCCCc1nc2c(=O)n3n(c(=O)c2n1Cc1ccc(-c2ccccc2-c2nn[nH]n2)cc1)CCCC3` [Compound No. 47, 2-n-butyl-5,6,7,8-tetrahydro-1-[(2'-(1H-tetrazol-5-yl)biphenyl-4-yl)methyl]-1H-1,3,4a,8a-tetraza-cyclopentanaphthalene-4,9-dione], the IC50 is 5.3 nM.

Regarding `CCCc1nc2c(=O)n3n(c(=O)c2n1Cc1ccc(-c2ccccc2-c2nn[nH]n2)cc1)CC(C)=C(C)C3` [Compound No. 67, 5,8-dihydro-6,7-dimethyl-2-n-propyl-1-[(2'-(1H-tetrazol-5-yl)biphenyl-4-yl)methyl]-1H-1,3,4a,8a-tetraza-cyclopentanaphthalene-4,9-dione], the IC50 stood at 14 nM. In the case of `CCCCc1nc2c(=O)n3n(c(=O)c2n1Cc1ccc(-c2ccccc2-c2nn[nH]n2)cc1)C1(C(=O)OC)CCC3CC1` [Compound No. 156, methyl 2-n-butyl-5,8-ethano-4,9-dioxo-5,6,7,8-tetrahydro-1-[{2'-(1H-tetrazol-5-yl)biphenyl-4-yl}methyl]-1H-1,3,4a,8a-tetraza-cyclopentanaphthalene-8-carboxylate] it was 69 nM; in that of `CCCCc1nc2c(=O)n3n(c(=O)c2n1Cc1ccc(-c2ccccc2-c2nn[nH]n2)cc1)C1CCC3(C(=O)OC)CC1` [Compound No. 159, methyl 2-n-butyl-5,8-ethano-4,9-dioxo-5,6,7,8-tetrahydro-1-[{2'-(1H-tetrazol-5-yl)biphenyl4-yl}methyl]-1H-1,3,4a,8a-tetraza-cyclopentanaphthalene-5-carboxylate], 5.1 nM; in that of `CCCCc1nc2c(=O)n3n(c(=O)c2n1Cc1ccc(-c2ccccc2-c2nn[nH]n2)cc1)C1(C(=O)OCC)CCC3CC1` [Compound No. 198, ethyl 2-n-butyl-4,9-dioxo-5,8-ethano-5,6,7,8-tetrahydro-1-[{2'-(1H-tetrazol-5-yl)biphenyl-4-yl}methyl]-1H-1,3,4a,8a-tetraza-cyclopentanaphthalene-8-carboxylate], more than 100 nM. In the case of `CCCc1nc2c(=O)n3n(c(=O)c2n1Cc1ccc(-c2ccccc2-c2nnn[nH]2)cc1)C(C(=O)N(CC)CC)CCC3C` (stereo not drawn) [Compound No. 205, 4,9-dioxo-5-methyl-2-n-propyl-5,6,7,8-tetrahydro-1-[{2'-(1H-tetrazol-5-yl)biphenyl-4-yl}methyl]-1H-1,3,4a,8a-tetraza-cyclopentanaphthalene-8-carboxy-N,N-diethylamide] it was 47 nM. As to `CCCc1nc2c(=O)n3n(c(=O)c2n1Cc1ccc(-c2ccccc2-c2nnn[nH]2)cc1)C(C(=O)NC(C)(C)C)CCC3C` (stereo not drawn) [Compound No. 209, 4,9-dioxo-5-methyl-2-n-propyl-5,6,7,8-tetrahydro-1-[{2'-(1H-tetrazol-5-yl)biphenyl-4-yl}methyl]-1H-1,3,4a,8a-tetraza-cyclopentanaphthalene-8-carboxy-N-t-butylamide], the IC50 came out at 58 nM. `CCCCc1nc2c(=O)n3n(c(=O)c2n1Cc1ccc(-c2ccccc2-c2nnn[nH]2)cc1)C(C(=O)NC(C)(C)C)CCC3C` (stereo not drawn) [Compound No. 210, 2-n-butyl-4,9-dioxo-5-methyl-5,6,7,8-tetrahydro-1-[{2'-(1H-tetrazol-5-yl)biphenyl-4-yl}methyl]-1H-1,3,4a,8a-tetraza-cyclopentanaphthalene-8-carboxy-N-t-butylamide] yielded an IC50 of 29 nM. `CCCc1nc2c(=O)n3n(c(=O)c2n1Cc1ccc(-c2ccccc2-c2nnn[nH]2)cc1)C1(COCC(=O)OC(C)(C)C)CCC3CC1` [Compound No. 225, 8-t-butoxycarboxylmethoxymethyl-5,8-ethano-2-n-propyl-5,6,7,8-tetrahydro-1-[{2'-(1H-tetrazol-5-yl)biphenyl-4-yl}methyl]-1H-1,3,4a,8a-tetraza-cyclopentanaphthalene-4,9-dione] gave an IC50 of 66 nM. `CCCc1nc2c(=O)n3n(c(=O)c2n1Cc1ccc(-c2ccccc2-c2nnn[nH]2)cc1)C1CCC3(COCC(C)O)CC1` (stereo not drawn) [Compound No. 227, 5,8-ethano-5-(2-hydroxypropyl)methoxynethyl-2-n-propyl-5,6,7,8-tetrahydro-1-[{2'-(1H-tetrazol-5-yl)biphenyl-4-yl}methyl]-1H-1,3,4a,8a-tetraza-cyclopentanaphthalene-4,9-dione] registered an IC50 of 38 nM. Regarding `CCCc1nc2c(=O)n3n(c(=O)c2n1Cc1ccc(-c2ccccc2-c2nnn[nH]2)cc1)C1(COCC(C)O)CCC3CC1` (stereo not drawn) [Compound No. 229, 5,8-ethano-8-(2-hydroxypropyl)methoxymethyl-2-n-propyl-5,6,7,8-tetrahydro-1-[{2'-(1H-tetrazol-5-yl)biphenyl-4-yl}methyl]-1H-1,3,4a,8a-tetraza-cyclopentanaphthalene-4,9-dione], the IC50 was determined as 8.7 nM. In the case of `CCCc1nc2c(=O)n3n(c(=O)c2n1Cc1ccc(-c2ccccc2-c2nn[nH]n2)cc1)C1(C(=O)N(CC)CC)CCC3CC1` [Compound No. 233, 4,9-dioxo-5,8-ethano-2-n-propyl-5,6,7,8-tetrahydro-1-[{2'-(1H-tetrazol-5-yl)biphenyl-4-yl}methyl]-1H-1,3,4a,8a-tetraza-cyclopentanaphthalene-8-carboxy-N,N-diethylamide] it was more than 100 nM.

Turning to `CCCCc1nc2c(=O)n3n(c(=O)c2n1Cc1ccc(-c2ccccc2-c2nn[nH]n2)cc1)C1(C(=O)NC(C)(C)C)CCC3CC1` [Compound No. 238, 2-n-butyl-4,9-dioxo-5,8-ethano-5,6,7,8-tetrahydro-1-[{2'-(1H-tetrazol-5-yl)biphenyl-4-yl}methyl]-1H-1,3,4a,8a-tetraza-cyclopentanaphthalene-8-carboxy-N-t-butylamide], the IC50 was more than 100 nM. `CCCc1nc2c(=O)n3n(c(=O)c2n1Cc1ccc(-c2ccccc2-c2nn[nH]n2)cc1)C1CCC3(C(=O)N(CCO)CCO)CC1` [Compound No. 239, 4,9-dioxo-5,8-ethano-2-n-propyl-5,6,7,8-tetrahydro-1-[{2'-(1H-tetrazol-5-yl)biphenyl-4-yl}methyl]-1H-1,3,4a,8a-tetraza-cyclopentanaphthalene-5-carboxy-N,N-bis(2-hydroxyethyl)amide] yielded an IC50 of more than 100 nM. In the case of `CCCc1nc2c(=O)n3n(c(=O)c2n1Cc1ccc(-c2ccccc2-c2nn[nH]n2)cc1)C1(C(=O)N(CCO)CCO)CCC3CC1` [Compound No. 241, 4,9-dioxo-5,8-ethano-2-n-propyl-5,6,7,8-tetrahydro-1-[{2'-(1H-tetrazol-5-yl)biphenyl-4-yl}methyl]-1H-1,3,4a,8a-tetraza-cyclopentanaphthalene-8-carboxy-N,N-bis(2-hydroxyethyl)amide], the IC50 was determined as 25 nM. Under `CCCc1nc2c(=O)n3n(c(=O)c2[nH]1)C(C)CCC3C` (stereo not drawn) [Compound No. 280, 5,8-dimethyl-2-n-propyl-5 6,7,8-tetrahydro-1H-1,3,4a,8a-tetraza-cyclopentanaphthalene-4,9-dione] stands 4.6 nM. In turn, `CCCc1nc2c(=O)n3n(c(=O)c2[nH]1)C1CCC3(C(C)(C)O)CC1` [Compound No. 323, 5,8-ethano-5-(1-hydroxy-1-methylethyl)-2-n-propyl-5,6,7,8-tetrahydro-1H-1,3,4a,8a-tetraza-cyclopentanaphthalene-4,9-dione] came in with an IC50 of more than 100 nM. Under `CCCc1nc2c(=O)n3n(c(=O)c2n1Cc1ccc(-c2ccccc2-c2nn[nH]n2)cc1)C(C)CCC3c1nc(C)no1` (stereo not drawn) [Compound No. 329, 8-methyl-5-(3-methyloxadiazol-5-yl)-2-n-propyl-5,6,7,8-tetrahydro-1-[{2'-(1H-tetrazol-5-yl)biphenyl-4-yl}methyl]-1H-1,3,4a,8a-tetraza-cyclopentanaphthalene-4,9-dione] stands 65 nM; under `CCCc1nc2c(=O)n3n(c(=O)c2n1Cc1ccc(-c2ccccc2-c2nn[nH]n2)cc1)C(c1nc(C)no1)CCC3C` (stereo not drawn) [Compound No. 331, 5-methyl-8-(3-methyloxadiazol-5-yl)-2-n-propyl-5,6,7,8-tetrahydro-1-[{2'-(1H-tetrazol-5-yl)biphenyl-4-yl}methyl]-1H-1,3,4a,8a-tetraza-cyclopentanaphthalene-4,9-dione], 3.9 nM. Regarding `CCCc1nc2c(=O)n3n(c(=O)c2n1Cc1ccc(-c2ccccc2-c2nn[nH]n2)cc1)CC(CC)=C(CC)C3` [Compound No. 359, 6,7-diethyl-5,8-dihydro-2-n-propyl-5,6,7,8-tetrahydro-1-[{2'-(1H-tetrazol-5-yl)biphenyl-4-yl}methyl]-1H-1,3,4a,8a-tetraza-cyclopentanaphthalene-4,9-dione], the IC50 was found to be 35 nM. In turn, `CCCc1nc2c(n1Cc1ccc(-c3ccccc3-c3nn[nH]n3)cc1)C(=O)N1CC(C)C(C)CN1C2` (stereo not drawn) [Compound No. 378, 6,7-dimethyl-2-n-propyl-5,6,7,8-tetrahydro-1-[{2'-(1H-tetrazol-5-yl)biphenyl-4-yl}methyl]-1H,4H-1,3,4a,8a-tetraza-cyclopentanaphthalene-9-one] had an IC50 of 4.6 nM.

On to `CCCc1nc2c(n1Cc1ccc(-c3ccccc3-c3nn[nH]n3)cc1)C(=O)N1CC(C)=C(C)CN1C2` [Compound No. 382, 5,8-dihydro-6,7-dimethyl-2-n-propyl-1-[{2'-(1H-tetrazol-5-yl)biphenyl-4-yl}methyl]-1H,4H-1,3,4a,8a-tetraza-cyclopentanaphthalene-9-one], for which the IC50 is 26 nM.
